pIC50: −log10 of the molar value. Values after ≈ are worked out from the molar mass of the structure shown. Where two headings read alike, the source gives them in different places.
How the values were obtained:
[1] = test system: HT-29 cells; experiment: Cytotoxicity / antiproliferative activity against HT-29 cells; assay type: cell-based; settings: HT-29 cells, antiproliferative activity
Excerpt: The cytotoxicity of the compounds in FIG. 1 was screened against HT-29 cells by a previously reported procedure (Ren Y et al. J. Nat. Prod 2011, 74, 1117-1125). A summary of the results is described in Table 1.

[2] = Solubility, plate reader-based absorbance assay; assay type: physicochemical
Excerpt: A series of compounds were synthesized to improve their water solubility. In particular, phyllanthusmin derivatives including an arabinose derivative with a free C2 hydroxy group, have been explored to produce phosphate, succinate, and amino acid conjugates. In addition PHY-25 and PHY-30 have also been synthesized to contain similar alcohol functionality that can ultimately be utilized to improve water solubility. PHY-28 and PHY-29 containing a glucosamine moiety were also synthesized for improved water solubility. The water solubility of these and other PHY derivatives was assessed (Table 2) to establish a baseline of solubility in a series of 4 solutions. This was accomplished using a plate reader-based absorbance assay.
The solubility, maximum tolerated dose, and pharmacokinetics of the phyllanthusmins, facilitating the in vivo studies with PHY-34, were also determined. The solubility of the compounds were assessed in DMSO, PEG300, HPβCD, and PBS. The stability of PHY-34 was assessed in a formulation comprising PEG300 and saline at a 1:1 volume ratio. The solution was prepared at a concentration of 7 mg/ml. A plate reader-based absorbance assay or LC-MS/MS was used. Table 4 summarizes the solubility measurements. FIG. 5 and Table 5 summarize the stability measurements. FIGS. 6A and 6B show the concentration-time profile of PHY-34 in mouse plasma via different administration routes

[3] = test system: OVCAR3 ovarian cancer cell line; experiment: IC50 in ovarian cancer cell line OVCAR3; assay type: cell-based
Method: (§1) The compounds shown in FIG. 2 were tested against two different ovarian cancer cell lines (xenograft mouse model OVCAR3 and OVCAR8 ovarian cancer cell lines). […] A summary of the test data is shown in FIGS. 3A, 3B, and 4 and Table 3. A comparison of the IC50 values of the compounds in FIG. 2 in two of the ovarian cancer cell lines (OVCAR3 and OVCAR8) reveal subtle differences in activity.

[4] = test system: OVCAR8 ovarian cancer cell line; experiment: IC50 in ovarian cancer cell line OVCAR8; assay type: cell-based
Method: as §1

Row | Solubility in 10% Cremaphor EL/PBS [2] [mg/mL] | Solubility in DMSO [2] [mg/mL] | Solubility in PBS [2] [mg/mL] | Solubility in PEG300 [2] [mg/mL] | pIC50 ([3]; OVCAR3) | pIC50 ([4]; OVCAR8) | Compound | pIC50 [1] | other results
1 | – | – | – | – | – | – | COc1cc2c(OCCOCc3ccccc3)c3c(c(-c4ccc5c(c4)OCO5)c2cc1OC)C(=O)OC3 [PHY-17] | 5.85 | –
2 | 10 | 83 | 0.18 | 15 | – | – | phyllanthusmins C [PHY-11] | – | –
3 | – | – | – | – | – | – | CC(=O)O[C@H]1C(=O)[C@@]2(C)[C@H]([C@H](OC(=O)c3ccccc3)[C@]3(O)C[C@H](OC(=O)[C@H](O)[C@@H](NC(=O)c4ccccc4)c4ccccc4)C(C)=C1C3(C)C)[C@]1(OC(C)=O)CO[C@@H]1C[C@@H]2O [TAXOL, Taxol, reference compound] | – | pIC50 ([3]; Homo sapiens, OVCAR-3): 8.23; pIC50 ([4]; Homo sapiens, OVCAR-8): 8.11
4 | – | – | – | – | – | – | COc1cc2c(OCC(O)CO)c3c(c(-c4ccc5c(c4)OCO5)c2cc1OC)C(=O)OC3 (centres unmarked) [PHY-19] | 5.81 | –
5 | – | – | – | – | – | – | COc1cc2c(O[C@@H]3O[C@H](COC(C)=O)[C@@H](OC(C)=O)[C@H](OC(C)=O)[C@H]3NC(C)=O)c3c(c(-c4ccc5c(c4)OCO5)c2cc1OC)C(=O)OC3 [PHY-28] | 5.81 | –
6 | – | – | – | – | 8.45 | 8.31 | COc1cc2c(OC3OC(CO)C4OC(C)(C)OC4C3OC)c3c(c(-c4ccc5c(c4)OCO5)c2cc1OC)C(=O)OC3 (centres unmarked) [PHY-37] | – | Solubility in 30% HPβCD ([2]; Table 4): 0.6 mg/mL (≈ 1.01 mM); Solubility in DMSO ([2]; Table 4): 104.0 mg/mL (≈ 174 mM); Solubility in PBS ([2]; Table 4): — (below the limit of quantitation (0.01 mg/ml)); Solubility in PEG300 ([2]; Table 4): 28.7 mg/mL (≈ 48.1 mM)
7 | 9.4 | 63 | 0.17 | 32 | – | – | phyllanthusmins C [PHY-4] | – | –
8 | – | 86.8 (≈ 142 mM) | – | 25.4 (≈ 41.6 mM) | 8.31 | 8.15 | COCC1OC(Oc2c3c(c(-c4ccc5c(c4)OCO5)c4cc(OC)c(OC)cc24)C(=O)OC3)C(OC)C2OC(C)(C)OC12 (centres unmarked) [PHY-35] | – | –
9 | 8.9 | 16 | 0.18 | 30 | – | – | phyllanthusmins B [PHY-3] | – | –
10 | – | – | – | – | 4.92 | 6.82 | COc1cc2c(OC)c3c(c(-c4ccc5c(c4)OCO5)c2cc1OC)C(=O)OC3 [PHY-26] | – | –
11 | 10 | 86 | 0.16 | 24 | – | – | phyllanthusmins C [PHY-20] | 5.92 | –

Row | Compound | Solubility in 10% Cremaphor EL/PBS [2] [mg/mL] | Solubility in DMSO [2] [mg/mL] | Solubility in PBS [2] [mg/mL] | Solubility in PEG300 [2] [mg/mL] | pIC50 ([3]; OVCAR3) | pIC50 ([4]; OVCAR8) | pIC50 [1] | other results
12 | COc1cc([C@@H]2c3cc4c(cc3[C@@H](O[C@@H]3O[C@@H]5CO[C@@H](C)O[C@H]5[C@H](O)[C@H]3O)[C@H]3COC(=O)[C@H]23)OCO4)cc(OC)c1O [ETOPO, etoposide, reference compound] | – | – | – | – | 5.62 | 5.09 | – | –
13 | acutissimalignan A [ACUTA, reference compound] | – | – | – | – | 5.50 | 7.45 | – | –
